Test system: MV-4-11 cells
Assay: Gene expression microarray analysis (Affymetrix PrimeView) and GSEA
Assay type: cell-based, human
Parameters: RFU PODN (11730768_x_at) / Fold change /veh PODN (11730768_x_at) / RFU LINC00158 (11744669_a_at) / Fold change /veh LINC00158 (11744669_a_at) / RFU DUSP10 (11751237_a_at) / Fold change /veh DUSP10 (11751237_a_at) / RFU ID3 (11757404_x_at) / Fold change /veh ID3 (11757404_x_at) / RFU PLEKHG5 (11737974_s_at) / Fold change /veh PLEKHG5 (11737974_s_at) / RFU LRRC4B (11730491_at) / Fold change /veh LRRC4B (11730491_at) / RFU GIMAP4 (11747438_a_at) / Fold change /veh GIMAP4 (11747438_a_at) / RFU KRT8 (11758183_x_at) / Fold change /veh KRT8 (11758183_x_at) / RFU CNN1 (11734310_a_at) / Fold change /veh CNN1 (11734310_a_at) / RFU VPS37D (11726825_at) / Fold change /veh VPS37D (11726825_at) / RFU C10orf10 (11716522_x_at) / Fold change /veh C10orf10 (11716522_x_at) / RFU KIR2DL2 /// KIR2DL4 /// KIR2DL5A /// KIR2DL5B /// KIR2DS1 /// KIR2DS2 /// KIR2DS3 /// KIR2DS4 /// KIR3DL3 /// KIR3DL3 /// KIR3DS1 (11738374_at) / Fold change /veh KIR2DL2 /// KIR2DL4 /// KIR2DL5A /// KIR2DL5B /// KIR2DS1 /// KIR2DS2 /// KIR2DS3 /// KIR2DS4 /// KIR3DL3 /// KIR3DL3 /// KIR3DS1 (11738374_at) / RFU C1QL1 (11718748_at) / Fold change /veh C1QL1 (11718748_at) / RFU TMPRSS4 (11747572_a_at) / Fold change /veh TMPRSS4 (11747572_a_at) / RFU HAMP (11756126_x_at) / Fold change /veh HAMP (11756126_x_at) / RFU RNFT2 (11725882_a_at) / Fold change /veh RNFT2 (11725882_a_at) / RFU NR4A2 (11747474_a_at) / Fold change /veh NR4A2 (11747474_a_at) / RFU ABCC12 (11746883_a_at) / Fold change /veh ABCC12 (11746883_a_at) / RFU TMEM136 (11760407_x_at) / Fold change /veh TMEM136 (11760407_x_at) / RFU CLDN22 /// WWC2 (11732394_at) / Fold change /veh CLDN22 /// WWC2 (11732394_at) / RFU HLA-DPB1 (11760878_x_at) / Fold change /veh HLA-DPB1 (11760878_x_at) / RFU SPINT1 (11716480_a_at) / Fold change /veh SPINT1 (11716480_a_at) / RFU GAP43 (11754022_s_at) / Fold change /veh GAP43 (11754022_s_at) / RFU A4GNT (11735810_at) / Fold change /veh A4GNT (11735810_at) / RFU PRB3 (11715151_x_at) / Fold change /veh PRB3 (11715151_x_at) / RFU TUBB4B (11761932_at) / Fold change /veh TUBB4B (11761932_at) / RFU CAPN14 (11732068_a_at) / Fold change /veh CAPN14 (11732068_a_at) / RFU TMCC2 (11721928_a_at) / Fold change /veh TMCC2 (11721928_a_at) / RFU IRGQ (11745062_a_at) / Fold change /veh IRGQ (11745062_a_at) / RFU FAM174B (11720279_a_at) / Fold change /veh FAM174B (11720279_a_at) / RFU TMPRSS4 (11748680_a_at) / Fold change /veh TMPRSS4 (11748680_a_at) / RFU FAM212B (11763350_a_at) / Fold change /veh FAM212B (11763350_a_at) / RFU PLEKHG5 (11743358_a_at) / Fold change /veh PLEKHG5 (11743358_a_at) / RFU ZSCAN30 (11745921_a_at) / Fold change /veh ZSCAN30 (11745921_a_at) / RFU CMKLR1 (11741424_a_at) / Fold change /veh CMKLR1 (11741424_a_at) / RFU LOC101060620 /// MAPK8IP1 (11723275_at) / Fold change /veh LOC101060620 /// MAPK8IP1 (11723275_at) / RFU SPTSSB (11747773_x_at) / Fold change /veh SPTSSB (11747773_x_at) / RFU PRSS12 (11739890_at) / Fold change /veh PRSS12 (11739890_at) / RFU BIN1 (11741810_x_at) / Fold change /veh BIN1 (11741810_x_at) / RFU WNT11 (11732464_a_at) / Fold change /veh WNT11 (11732464_a_at) / RFU C10orf10 (11716521_a_at) / Fold change /veh C10orf10 (11716521_a_at) / RFU C5orf56 (11738089_at) / Fold change /veh C5orf56 (11738089_at) / RFU CYB561 (11721691_x_at) / Fold change /veh CYB561 (11721691_x_at) / RFU ANKRD19P (11752326_a_at) / Fold change /veh ANKRD19P (11752326_a_at) / RFU OR2T12 /// OR2T33 /// OR2T8 (11738714_s_at) / Fold change /veh OR2T12 /// OR2T33 /// OR2T8 (11738714_s_at) / RFU VCAN (11748164_a_at) / Fold change /veh VCAN (11748164_a_at) / RFU JSRP1 (11732532_at) / Fold change /veh JSRP1 (11732532_at) / RFU KRTAP10-11 (11738290_x_at) / Fold change /veh KRTAP10-11 (11738290_x_at) / RFU MYO3A (11730013_a_at) / Fold change /veh MYO3A (11730013_a_at) / RFU EBF3 (11725865_a_at) / Fold change /veh EBF3 (11725865_a_at) / RFU CAMK2N1 (11719241_x_at) / Fold change /veh CAMK2N1 (11719241_x_at) / RFU C5orf56 (11738088_a_at) / Fold change /veh C5orf56 (11738088_a_at) / RFU OLFML3 (11715873_a_at) / Fold change /veh OLFML3 (11715873_a_at) / RFU LOC100653217 /// NTM (11731650_a_at) / Fold change /veh LOC100653217 /// NTM (11731650_a_at) / RFU MAPK11 (11762145_a_at) / Fold change /veh MAPK11 (11762145_a_at) / RFU FIZ1 (11724087_x_at) / Fold change /veh FIZ1 (11724087_x_at) / RFU OASL (11726364_x_at) / Fold change /veh OASL (11726364_x_at) / RFU SOX15 (11748057_x_at) / Fold change /veh SOX15 (11748057_x_at) / RFU CD79A (11719716_a_at) / Fold change /veh CD79A (11719716_a_at) / RFU HIST1H1D (11736915_at) / Fold change /veh HIST1H1D (11736915_at) / RFU CASKIN2 (11723855_a_at) / Fold change /veh CASKIN2 (11723855_a_at) / RFU LOC730098 (11760151_x_at) / Fold change /veh LOC730098 (11760151_x_at) / RFU OR4N2 (11742367_at) / Fold change /veh OR4N2 (11742367_at) / RFU PRRT2 (11749266_a_at) / Fold change /veh PRRT2 (11749266_a_at) / RFU SNX32 (11753110_a_at) / Fold change /veh SNX32 (11753110_a_at) / RFU CDHR5 (11726645_a_at) / Fold change /veh CDHR5 (11726645_a_at) / RFU RCAN1 (11760418_a_at) / Fold change /veh RCAN1 (11760418_a_at) / RFU FAM167A (11723789_a_at) / Fold change /veh FAM167A (11723789_a_at) / RFU FAM26E (11764081_at) / Fold change /veh FAM26E (11764081_at) / RFU ISYNA1 (11749810_s_at) / Fold change /veh ISYNA1 (11749810_s_at) / RFU ACY1 (11761880_at) / Fold change /veh ACY1 (11761880_at) / RFU 11764098_at / Fold change /veh 11764098_at / RFU SAMD14 (11745864_x_at) / Fold change /veh SAMD14 (11745864_x_at) / RFU NPB (11741838_a_at) / Fold change /veh NPB (11741838_a_at) / RFU TMPRSS6 (11731388_a_at) / Fold change /veh TMPRSS6 (11731388_a_at) / RFU KRTAP10-2 (11738614_at) / Fold change /veh KRTAP10-2 (11738614_at) / RFU ARHGAP8 /// PRR5-ARHGAP8 (11727945_x_at) / Fold change /veh ARHGAP8 /// PRR5-ARHGAP8 (11727945_x_at) / RFU KRTAP5-7 /// NADSYN1 (11734609_at) / Fold change /veh KRTAP5-7 /// NADSYN1 (11734609_at) / RFU RASL12 (11751679_a_at) / Fold change /veh RASL12 (11751679_a_at) / RFU CDKN2B (11736163_a_at) / Fold change /veh CDKN2B (11736163_a_at) / RFU PRF1 (11729649_at) / Fold change /veh PRF1 (11729649_at) / RFU, ZNF638 /// ZNF638-IT1 / Fold change vs veh, ZNF638 /// ZNF638-IT1 / RFU, PANK3 / Fold change vs veh, PANK3 / RFU, SH3YL1 / Fold change vs veh, SH3YL1 / RFU, ZEB2 / Fold change vs veh, ZEB2 / RFU, NRIP1 / Fold change vs veh, NRIP1 / RFU, PTTG1IP / Fold change vs veh, PTTG1IP / RFU, CAPN2 / Fold change vs veh, CAPN2 / RFU, MED14 / Fold change vs veh, MED14 / RFU, SNORA58 / Fold change vs veh, SNORA58 / RFU, C1orf63 / Fold change vs veh, C1orf63 / RFU, LRRFIP1 / Fold change vs veh, LRRFIP1 / RFU, NDUFAF7 / Fold change vs veh, NDUFAF7 / RFU, SLC12A2 / Fold change vs veh, SLC12A2 / RFU, IBTK / Fold change vs veh, IBTK / RFU, ESF1 / Fold change vs veh, ESF1 / Fold change vs veh, TMEM50B / RFU, TAOK1 / Fold change vs veh, TAOK1 / RFU, ACBD3 / Fold change vs veh, ACBD3 / RFU, TMA16 / Fold change vs veh, TMA16 / RFU, RWDD3 / Fold change vs veh, RWDD3 / RFU, BCAT1 / Fold change vs veh, BCAT1 / RFU, EDEM3 / Fold change vs veh, EDEM3 / RFU, TMEM33 / Fold change vs veh, TMEM33 / RFU, WDR75 / Fold change vs veh, WDR75 / RFU, AHCTF1 / Fold change vs veh, AHCTF1 / RFU, TFRC / Fold change vs veh, TFRC / RFU, ZDHHC17 / Fold change vs veh, ZDHHC17 / RFU, NOM1 / Fold change vs veh, NOM1 / RFU, ARL8B / Fold change vs veh, ARL8B / RFU, ZBTB11 / Fold change vs veh, ZBTB11 / RFU, TAMM41 / Fold change vs veh, TAMM41 / RFU, KIAA1704 /// LOC100996395 / Fold change vs veh, KIAA1704 /// LOC100996395 / RFU, ING1 / Fold change vs veh, ING1 / RFU, TRMT61B / Fold change vs veh, TRMT61B / RFU, FUBP3 / Fold change vs veh, FUBP3 / RFU, TP53 / Fold change vs veh, TP53 / RFU, TNKS2 / Fold change vs veh, TNKS2 / RFU, ZFP14 / Fold change vs veh, ZFP14 / RFU, ACTR2 / Fold change vs veh, ACTR2 / RFU, PPP3R1 / Fold change vs veh, PPP3R1 / RFU, PIK3R1 / Fold change vs veh, PIK3R1 / RFU, HNRNPA1 / Fold change vs veh, HNRNPA1 / RFU, RNF170 / Fold change vs veh, RNF170 / RFU, ZNF28 / Fold change vs veh, ZNF28 / RFU, RNGTT / Fold change vs veh, RNGTT / RFU, OGT / Fold change vs veh, OGT / RFU, BRD1 / Fold change vs veh, BRD1 / RFU, MARS / Fold change vs veh, MARS / RFU, ZNF655 / Fold change vs veh, ZNF655 / RFU, FAHD1 / Fold change vs veh, FAHD1 / RFU, BDP1 / Fold change vs veh, BDP1 / RFU, LRRCC1 / Fold change vs veh, LRRCC1 / RFU, ARID1A / Fold change vs veh, ARID1A / RFU, ZNF146 / Fold change vs veh, ZNF146 / RFU, ZNF330 / Fold change vs veh, ZNF330 / RFU, GPN3 / Fold change vs veh, GPN3 / RFU, C9orf123 / Fold change vs veh, C9orf123 / RFU, N4BP2L2 / Fold change vs veh, N4BP2L2 / RFU, ARFIP1 / Fold change vs veh, ARFIP1 / RFU, FAM179B / Fold change vs veh, FAM179B / RFU, BCL10 / Fold change vs veh, BCL10 / RFU, UHRF1BP1L / Fold change vs veh, UHRF1BP1L / RFU, BET1 / Fold change vs veh, BET1 / RFU, CNOT2 / Fold change vs veh, CNOT2 / RFU, ZNF268 / Fold change vs veh, ZNF268 / Fold change vs veh, ZNF507 / RFU, DGCR2 / Fold change vs veh, DGCR2 / RFU, WDSUB1 / Fold change vs veh, WDSUB1 / Fold change vs veh, HSP90B1 /// MIR3652 / RFU, ADSS / Fold change vs veh, ADSS / RFU, GK / Fold change vs veh, GK / RFU, ZNF148 / Fold change vs veh, ZNF148 / RFU, TAF9 / Fold change vs veh, TAF9 / RFU, SLC1A5 / Fold change vs veh, SLC1A5 / RFU, SLMO2 / Fold change vs veh, SLMO2 / RFU, ABCC4 / Fold change vs veh, ABCC4 / RFU, LOC101060439 /// RAP1B / Fold change vs veh, LOC101060439 /// RAP1B / RFU, RFX7 / Fold change vs veh, RFX7 / RFU, GTPBP10 / Fold change vs veh, GTPBP10 / RFU, CNEP1R1 / Fold change vs veh, CNEP1R1 / RFU, BIVM-ERCC5 /// ERCC5 / Fold change vs veh, BIVM-ERCC5 /// ERCC5 / RFU, ILF3 / Fold change vs veh, ILF3 / RFU 11762660_at / Fold change /veh 11762660_at / RFU VCAN (11757783_s_at) / Fold change /veh VCAN (11757783_s_at) / RFU DDX43 (11728927_at) / Fold change /veh DDX43 (11728927_at) / RFU KRT8 (11758188_x_at) / Fold change /veh KRT8 (11758188_x_at) / RFU NKD1 (11759106_at) / Fold change /veh NKD1 (11759106_at) / RFU SRD5A1 (11742802_a_at) / Fold change /veh SRD5A1 (11742802_a_at) / RFU TPSAB1 /// TPSB2 (11721975_s_at) / Fold change /veh TPSAB1 /// TPSB2 (11721975_s_at) / RFU GSTM3 (11746129_a_at) / Fold change /veh GSTM3 (11746129_a_at) / RFU IL23R (11737362_x_at) / Fold change /veh IL23R (11737362_x_at) / RFU TMEM51 (11727254_a_at) / Fold change /veh TMEM51 (11727254_a_at) / RFU PIWIL2 (11732686_x_at) / Fold change /veh PIWIL2 (11732686_x_at) / RFU ORM1 (11744905_x_at) / Fold change /veh ORM1 (11744905_x_at) / RFU CCDC152 (11743942_at) / Fold change /veh CCDC152 (11743942_at) / RFU ECM1 (11717891_a_at) / Fold change /veh ECM1 (11717891_a_at) / RFU IL23R (11748794_a_at) / Fold change /veh IL23R (11748794_a_at) / RFU TNFAIP8L3 (11732012_x_at) / Fold change /veh TNFAIP8L3 (11732012_x_at) / RFU MBOAT4 (11741988_at) / Fold change /veh MBOAT4 (11741988_at) / RFU 11764193_at / Fold change /veh 11764193_at / RFU TMEM53 (11763286_at) / Fold change /veh TMEM53 (11763286_at) / RFU MAGEB2 (11727129_at) / Fold change /veh MAGEB2 (11727129_at) / RFU TMEM200A (11744735_a_at) / Fold change /veh TMEM200A (11744735_a_at) / RFU CCDC152 (11751479_a_at) / Fold change /veh CCDC152 (11751479_a_at) / RFU FAM211A (11726209_a_at) / Fold change /veh FAM211A (11726209_a_at) / RFU RGS16 (11746705_a_at) / Fold change /veh RGS16 (11746705_a_at) / RFU VCAN (11755009_s_at) / Fold change /veh VCAN (11755009_s_at) / RFU RHOB (11743442_s_at) / Fold change /veh RHOB (11743442_s_at) / RFU RGS16 (11720943_a_at) / Fold change /veh RGS16 (11720943_a_at) / RFU RGS16 (11720944_at) / Fold change /veh RGS16 (11720944_at) / RFU, VPS4B / Fold change vs veh, VPS4B / RFU, CREB1 / Fold change vs veh, CREB1 / RFU, DNAJC13 / Fold change vs veh, DNAJC13 / RFU, GNAQ / Fold change vs veh, GNAQ / RFU, CDK5R1 / Fold change vs veh, CDK5R1 / RFU, ZRANB3 / Fold change vs veh, ZRANB3 / RFU, CUL4A / Fold change vs veh, CUL4A / RFU, CCNY / Fold change vs veh, CCNY / RFU, UFL1 / Fold change vs veh, UFL1 / RFU, COG3 / Fold change vs veh, COG3 / RFU, DIAPH2 / Fold change vs veh, DIAPH2 / RFU, SKA2 / Fold change vs veh, SKA2 / RFU, AFF3 / Fold change vs veh, AFF3 / RFU, LMF1 / Fold change vs veh, LMF1 / RFU, IPO11 / Fold change vs veh, IPO11 / RFU, DFFB / Fold change vs veh, DFFB / RFU, FOXP1 / Fold change vs veh, FOXP1 / RFU, CARD8 / Fold change vs veh, CARD8 / RFU, STRN3 / Fold change vs veh, STRN3 / RFU, ADK / Fold change vs veh, ADK / RFU, RASSF2 / Fold change vs veh, RASSF2 / RFU, WIPF1 / Fold change vs veh, WIPF1 / RFU, LARP1B / Fold change vs veh, LARP1B / RFU, RASA1 / Fold change vs veh, RASA1 / RFU, RB1 / Fold change vs veh, RB1 / RFU, PPFIA1 / Fold change vs veh, PPFIA1 / RFU, MAT2A / Fold change vs veh, MAT2A / RFU, CCT5 / Fold change vs veh, CCT5 / RFU, WDR92 / Fold change vs veh, WDR92 / RFU, CUX1 / Fold change vs veh, CUX1 / RFU, TTC7A / Fold change vs veh, TTC7A / RFU, TMEM135 / Fold change vs veh, TMEM135 / RFU, DEPTOR / Fold change vs veh, DEPTOR / RFU, CPM / Fold change vs veh, CPM / RFU, DNAJB6 / Fold change vs veh, DNAJB6 / RFU, CACNA2D3 / Fold change vs veh, CACNA2D3 / RFU, DTX4 / Fold change vs veh, DTX4 / RFU, TFCP2 / Fold change vs veh, TFCP2 / RFU, GMCL1 /// GMCL1P1 / Fold change vs veh, GMCL1 /// GMCL1P1 / RFU, AEBP2 / Fold change vs veh, AEBP2 / RFU, SNHG1 /// SNORD22 /// SNORD25 /// SNORD26 /// SNORD27 /// SNORD28 /// SNORD29 /// SNORD31 / Fold change vs veh, SNHG1 /// SNORD22 /// SNORD25 /// SNORD26 /// SNORD27 /// SNORD28 /// SNORD29 /// SNORD31 / Fold change (Aza/veh), C12orf56 (ProbeSet 11735607_a_at) / Fold change (ACY-1035/veh), C12orf56 (ProbeSet 11735607_a_at) / Fold change (Aza/veh), FGFR1OP (ProbeSet 11751329_s_at) / Fold change (ACY-1035/veh), FGFR1OP (ProbeSet 11751329_s_at) / Fold change (Aza/veh), VPS36 (ProbeSet 11739960_a_at) / Fold change (ACY-1035/veh), VPS36 (ProbeSet 11739960_a_at) / RFU SYPL1 (11715823_x_at) / Fold change /veh SYPL1 (11715823_x_at) / RFU IGFBP7 (11715501_s_at) / Fold change /veh IGFBP7 (11715501_s_at) / RFU REEP3 (11722064_at) / Fold change /veh REEP3 (11722064_at) / RFU IGLL1 (11728026_x_at) / Fold change /veh IGLL1 (11728026_x_at): dose or concentration left out as unconfirmed
Conditions: MV-4-11 cells, 48 hours

SMILES: Nc1ccc(-c2cccs2)cc1NC(=O)c1ccc2c(c1)cc(C1CC1)n2CCN1CCOCC1 [ACY-1035]
- Fold change /veh FAM211A (11726209_a_at): 1.04

From article PMC5218480 (PLoS ONE, 2017)
